Experiment: xn = mol fraction of the nth substance listed
Conditions: Liquid; for viscosity: Capillary tube (Ostwald / Ubbelohde) method; for mass density: Vibrating tube method

CCCO [propan-1-ol] + O
Conditions | mass density, 10000 kPa [kg/m3] | mass density, 20000 kPa [kg/m3] | mass density, 30000 kPa [kg/m3] | mass density, 40000 kPa [kg/m3] | viscosity, 10000 kPa [mPa·s] | viscosity, 20000 kPa [mPa·s] | viscosity, 30000 kPa [mPa·s] | viscosity, 40000 kPa [mPa·s]
350.7 K, x1 = 0.1 | 919.5 | 924.38 | 929.09 | 934.42 | 0.591 | 0.611 | 0.63 | 0.635
350.7 K, x1 = 0.2 | 878.37 | 883.66 | 889.66 | 895.4 | 0.723 | 0.763 | 0.81 | 0.826
350.7 K, x1 = 0.3 | 847.8 | 854.62 | 861.08 | 866.79 | 0.77 | 0.814 | 0.85 | 0.861
350.7 K, x1 = 0.4 | 826 | 833.03 | 840.74 | 847.26 | 0.758 | 0.81 | 0.86 | 0.883
350.7 K, x1 = 0.6 | 796.1 | 804.64 | 812.37 | 819.69 | 0.737 | 0.774 | 0.848 | 0.88
350.7 K, x1 = 0.8 | 776.11 | 786.05 | 794.61 | 802.32 | 0.689 | 0.736 | 0.827 | 0.864
350.7 K, x1 = 1 | 763.09 | 772.75 | 781.33 | 789.02 | 0.694 | 0.753 | 0.823 | 0.869
373.2 K, x1 = 0.1 | 900.32 | 905.78 | 911.46 | 916.96 | 0.439 | 0.441 | 0.455 | 0.463
373.2 K, x1 = 0.2 | 857.3 | 863.27 | 869.79 | 875.69 | 0.504 | 0.513 | 0.533 | 0.547
373.2 K, x1 = 0.3 | 827.05 | 834.28 | 842.03 | 848.33 | 0.531 | 0.55 | 0.577 | 0.599
373.2 K, x1 = 0.4 | 804.56 | 813.43 | 820.4 | 827.89 | 0.514 | 0.542 | 0.57 | 0.6
373.2 K, x1 = 0.6 | 774.56 | 784.28 | 792.47 | 800.74 | 0.51 | 0.541 | 0.576 | 0.611
373.2 K, x1 = 0.8 | 755.44 | 765.59 | 774.18 | 782.84 | 0.49 | 0.531 | 0.572 | 0.614
373.2 K, x1 = 1 | 741.54 | 752.5 | 762.28 | 770.94 | 0.488 | 0.533 | 0.581 | 0.613
476.2 K, x1 = 0.1 | 790.18 | 799.73 | 810.27 | 818.93 | 0.161 | 0.171 | 0.175 | 0.179
476.2 K, x1 = 0.2 | 739.33 | 752.08 | 764.81 | 775.35 | 0.162 | 0.172 | 0.181 | 0.189
476.2 K, x1 = 0.3 | 702.79 | 718.75 | 733.87 | 745.92 | 0.157 | 0.17 | 0.183 | 0.195
476.2 K, x1 = 0.4 | 678.7 | 697.03 | 713.61 | 726.38 | 0.153 | 0.17 | 0.189 | 0.21
476.2 K, x1 = 0.6 | 646.98 | 667.25 | 686.56 | 700.42 | 0.145 | 0.161 | 0.178 | 0.195
476.2 K, x1 = 0.8 | 627.55 | 651.81 | 672.08 | 686.68 | 0.139 | 0.157 | 0.173 | 0.188
476.2 K, x1 = 1 | 612.56 | 640.86 | 662.44 | 677.8 | 0.137 | 0.157 | 0.176 | 0.192

Reference: the NIST ThermoML archive (doi:10.1016/j.fluid.2015.07.012)
